In ChEMBL document CHEMBL4043207, “Discovery of a novel, CNS penetrant M4 PAM chemotype based on a 6-fluoro-4-(piperidin-1-yl)quinoline-3-carbonitrile core” (Bioorg Med Chem Lett, 2017):

Tests used:
[1] = molecular target: T1, Muscarinic acetylcholine receptor M4 (Homo sapiens) (UniProt P08173); assay: Positive allosteric modulation of human M4 receptor expressed in CHO cells co-expressing Gqi5 assessed as increase in acetylcholine-induced calcium mobilization relative to acetylcholine; assay type: functional, cell-based
T1 sequence (whole entry): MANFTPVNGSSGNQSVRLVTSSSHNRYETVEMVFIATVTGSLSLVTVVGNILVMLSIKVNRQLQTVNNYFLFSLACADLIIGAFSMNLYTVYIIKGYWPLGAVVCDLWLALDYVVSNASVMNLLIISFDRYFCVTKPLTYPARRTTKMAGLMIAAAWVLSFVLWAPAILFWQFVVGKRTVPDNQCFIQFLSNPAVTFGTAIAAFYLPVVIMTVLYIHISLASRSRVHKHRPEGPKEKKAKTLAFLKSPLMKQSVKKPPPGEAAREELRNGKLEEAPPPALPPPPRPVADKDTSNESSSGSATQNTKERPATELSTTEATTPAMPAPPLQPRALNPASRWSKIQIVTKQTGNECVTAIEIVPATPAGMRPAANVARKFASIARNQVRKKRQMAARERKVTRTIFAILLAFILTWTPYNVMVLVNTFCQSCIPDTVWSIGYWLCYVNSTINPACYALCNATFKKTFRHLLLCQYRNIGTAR

[2] = molecular target: T2, Muscarinic acetylcholine receptor M4 (Homo sapiens, UniProt P08173); assay: Positive allosteric modulation of human M4 receptor expressed in CHO cells co-expressing Gqi5 assessed as increase in acetylcholine-induced calcium mobilization; assay type: functional, cell-based
T2 sequence (P08173 whole entry): T1 sequence (whole entry)

[3] = Clearance in rat hepatocytes; assay type: ADME, cell-based, Hepatocyte
[4] = Clearance in human hepatocytes; assay type: ADME, cell-based, Hepatocyte
[5] = Fraction unbound in rat plasma; assay type: ADME, cell-free
[6] = Fraction unbound in rat brain; assay type: ADME, tissue-based
Plasma [7] = assay: (§1) Fraction unbound in human plasma; assay type: ADME, cell-free
[8] = Brain to plasma permeability coefficient, Kp of the compound in Sprague-Dawley rat at 0.1 to 0.2 mg/kg, iv administered as cassette dose after 25 mins; assay type: ADME, organism-based; conditions: brain and plasma
[9] = Ratio of unbound concentration in brain to plasma in Sprague-Dawley rat at 0.1 to 0.2 mg/kg, iv administered as cassette dose after 25 mins; assay type: ADME, organism-based; conditions: brain and plasma, read-out: K(p,uu,brain)
[10] = molecular target: T3, Muscarinic acetylcholine receptor M4 (Rattus norvegicus, UniProt P08485); assay: Positive allosteric modulation of rat M4 receptor assessed as increase in acetylcholine-induced response
T3 sequence (P08485 whole entry): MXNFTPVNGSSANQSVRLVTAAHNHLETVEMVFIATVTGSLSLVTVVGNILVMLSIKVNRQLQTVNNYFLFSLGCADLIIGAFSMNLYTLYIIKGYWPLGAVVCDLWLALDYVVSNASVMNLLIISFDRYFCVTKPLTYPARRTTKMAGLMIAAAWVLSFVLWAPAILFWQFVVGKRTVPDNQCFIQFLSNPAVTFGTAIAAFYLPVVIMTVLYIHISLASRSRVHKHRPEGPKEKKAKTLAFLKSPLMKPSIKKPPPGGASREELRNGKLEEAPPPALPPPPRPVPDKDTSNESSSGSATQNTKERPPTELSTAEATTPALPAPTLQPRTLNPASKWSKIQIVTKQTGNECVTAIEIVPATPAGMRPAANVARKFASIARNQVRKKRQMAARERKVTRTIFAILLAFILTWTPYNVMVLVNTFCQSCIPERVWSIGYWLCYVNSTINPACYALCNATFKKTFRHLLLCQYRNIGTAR

[11] = molecular target: T4, Muscarinic acetylcholine receptor M4 (Rattus norvegicus) (UniProt P08485); assay: Positive allosteric modulation of rat M4 receptor assessed as increase in acetylcholine-induced response relative to acetylcholine
T4 sequence (whole entry): T3 sequence (P08485 whole entry)

[12] = as §1; assay type: ADME, cell-free
MDR1 (P-gp) = assay: Efflux ratio of apparent permeability in MDCK-MDR1 cells; assay type: ADME, cell-based, Canis lupus familiaris; conditions: dog
[13] = Ratio of unbound concentration in brain to plasma in rat; assay type: ADME
[14] = Brain to plasma permeability coefficient, Kp of the compound in rat; assay type: ADME
[15] = Half life in rat plasma at 0.2 mg/kg administered as iv cassette dose; assay type: ADME, organism-based
Plasma [16] = assay: Fraction unbound in dog plasma at 0.2 mg/kg administered as iv casette dose; assay type: ADME, organism-based, Canis lupus familiaris; conditions: in vivo
[17] = Volume of distribution at steady state in dog plasma at 0.2 mg/kg administered as iv cassette dose; assay type: ADME, organism-based, Canis lupus familiaris; conditions: read-out: Vdss
[18] = Clearance in rat plasma at 0.2 mg/kg administered as iv cassette dose; assay type: ADME, organism-based
[19] = Apparent permeability in MDCK-MDR1 cells; assay type: ADME, cell-based, Canis lupus familiaris; conditions: dog
[20] = Clearance in dog plasma at 0.2 mg/kg administered as iv cassette dose; assay type: ADME, organism-based, Canis lupus familiaris
[21] = Half life in dog plasma at 0.2 mg/kg administered as iv cassette dose; assay type: ADME, organism-based, Canis lupus familiaris
[22] = Volume of distribution at steady state in rat plasma at 0.2 mg/kg administered as iv cassette dose; assay type: ADME, organism-based; conditions: read-out: Vdss

Cc1ccc(OC2CCN(c3c(C#N)cnc4cc(F)c(F)cc34)CC2)cn1
Emax [1]: 92%
EC50 ([2]; read-out: EC50): 571 nM
EC50 ([2]; read-out: pEC50 (converted)): 562 nM

N#Cc1ccc(OC2CCN(c3c(C#N)cnc4ccc(F)cc34)CC2)cn1
Emax [1]: 49%
EC50 ([2]; read-out: EC50): > 10000 nM

Cc1ccc(OC2CCN(c3c(C#N)cnc4c(C)cc(F)cc34)CC2)cn1
Emax [1]: 82%
EC50 ([2]; read-out: EC50): 2070 nM

N#Cc1cnc2ccc(F)cc2c1N1CCC(C(=O)Nc2ccccn2)CC1
Emax [1]: 44%
EC50 ([2]; read-out: EC50): 912 nM
EC50 ([2]; read-out: pEC50 (converted)): 871 nM

Cc1ccc(OC2CCN(c3c(C#N)cnc4ccc(Cl)cc34)CC2)cn1
Emax [1]: 72%
EC50 ([2]; read-out: EC50): 905 nM

Cc1ccc(OC2CCN(c3ncnc4ccc(F)cc34)CC2)cn1
CLhep predicted [3]: 67 mL/min/kg
CLhep predicted [4]: 20 mL/min/kg
fraction unbound [5]: 0.011
fraction unbound [6]: 0.007
Fu (Plasma [7]): 0.013
Kp at 25 min [8]: 1.16
Kp uu at 25 min [9]: 0.74

COc1ccccc1CNC(=O)C1CCN(c2c(C#N)cnc3ccc(F)cc23)CC1
Emax [1]: 48%
EC50 ([2]; read-out: EC50): 651 nM
EC50 ([2]; read-out: pEC50 (converted)): 589 nM

Cn1nccc1NC(=O)C1CCN(c2c(C#N)cnc3ccc(F)cc23)CC1
Emax [1]: 81%
EC50 ([2]; read-out: EC50): 1760 nM
EC50 ([2]; read-out: pEC50 (converted)): 1660 nM

N#Cc1cnc2ccc(F)cc2c1N1CCC(Oc2ccc(F)nc2)CC1
Emax [1]: 83%
EC50 ([2]; read-out: EC50): 512 nM
EC50 ([2]; read-out: pEC50 (converted)): 490 nM

Cc1ccc(OC2CCN(c3c(C#N)cnc4c(F)cc(F)cc34)CC2)cn1
Emax [1]: 93%
EC50 ([2]; read-out: EC50): 223 nM
EC50 ([2]; read-out: pEC50 (converted)): 209 nM

N#Cc1cnc2ccc(F)cc2c1N1CCC(Oc2cccnc2)CC1
Emax [1]: 80%
EC50 ([2]; read-out: EC50): 1300 nM

N#Cc1cnc2ccc(F)cc2c1N1CCC(C(=O)N2CCOCC2)CC1
Emax [1]: 78%
EC50 ([2]; read-out: EC50): 6440 nM

Cc1ccc(OC2CCN(c3c(C#N)cnc4ccc(F)cc34)CC2)c(F)n1
Emax [1]: 53%
EC50 ([2]; read-out: EC50): 5640 nM
EC50 ([2]; read-out: pEC50 (converted)): 5370 nM

N#Cc1cnc2ccc(F)cc2c1N1CCC(C(=O)Nc2ccncn2)CC1
Emax [1]: 59%
EC50 ([2]; read-out: EC50): 940 nM

N#Cc1cnc2ccc(F)cc2c1N1CCC(C(=O)NCc2ccccc2)CC1
EC50 [10]: 2560 nM
Emax [1]: 68 to 78%
CLhep predicted [3]: 61 mL/min/kg
CLhep predicted [4]: 17 mL/min/kg
fraction unbound [5]: 0.028
Emax [11]: 49%
EC50 ([2]; read-out: pEC50 (converted)): 1230 nM
fraction unbound [12]: 0.031

N#Cc1cnc2ccc(F)cc2c1N1CCC(C(=O)Nc2ccncc2)CC1
Emax [1]: 73%
EC50 ([2]; read-out: EC50): 147 nM

Cc1ccc(OC2CCN(c3c(C#N)cnc4ccc(F)cc34)CC2)c(C)n1
EC50 ([2]; read-out: EC50): > 10000 nM
EC50 ([2]; read-out: pEC50 (converted)): > 31600 nM

N#Cc1cnc2ccc(F)cc2c1N1CCC(C(=O)N2CCc3ccccc3C2)CC1
Emax [1]: 81%
EC50 ([2]; read-out: EC50): 652 nM

N#Cc1cnc2ccc(F)cc2c1N1CCC(Oc2ccccc2)CC1
Emax [1]: 81%
EC50 ([2]; read-out: EC50): 3260 nM

N#Cc1cnc2ccc(F)cc2c1N1CCC(C(=O)N2CCSCC2)CC1
Emax [1]: 88%
EC50 ([2]; read-out: EC50): 1410 nM

N#Cc1cnc2ccc(F)cc2c1N1CCC(C(=O)Nc2cccnc2)CC1
Emax [1]: 68%
EC50 ([2]; read-out: EC50): 619 nM

N#Cc1cnc2ccc(F)cc2c1N1CCC(Oc2ccc(Cl)nc2)CC1
Emax [1]: 80%
EC50 ([2]; read-out: EC50): 577 nM
EC50 ([2]; read-out: pEC50 (converted)): 562 nM

N#Cc1cnc2ccc(F)cc2c1N1CCC(C(=O)Nc2ccc(S(N)(=O)=O)cc2)CC1
efflux ratio (MDR1 (P-gp)): 83
Emax [1]: 63%
CLhep predicted [3]: 34 mL/min/kg
CLhep predicted [4]: 13 mL/min/kg
fraction unbound [5]: 0.016
fraction unbound [6]: 0.01
EC50 ([2]; read-out: EC50): 248 nM
EC50 ([2]; read-out: pEC50 (converted)): 229 nM
fraction unbound [12]: 0.064
Kp at 25 min [8]: 0.16
Kp uu at 25 min [9]: 0.1

Cc1cc(C)c(OC2CCN(c3c(C#N)cnc4ccc(F)cc34)CC2)cn1
EC50 ([2]; read-out: EC50): > 10000 nM
EC50 ([2]; read-out: pEC50 (converted)): > 31600 nM

COc1ccc2c(c1)CCN(C(=O)C1CCN(c3c(C#N)cnc4ccc(F)cc34)CC1)C2
Emax [1]: 76%
CLhep predicted [3]: 64 mL/min/kg
CLhep predicted [4]: 20 mL/min/kg
fraction unbound [5]: 0.013
fraction unbound [6]: 0.007
EC50 ([2]; read-out: EC50): 648 nM
fraction unbound [12]: 0.011
Kp at 25 min [8]: 1.26
Kp uu at 25 min [9]: 0.68

COc1ccc(CNC(=O)C2CCN(c3c(C#N)cnc4ccc(F)cc34)CC2)cc1
Emax [1]: 60%
EC50 ([2]; read-out: EC50): 664 nM
EC50 ([2]; read-out: pEC50 (converted)): 617 nM

COc1ccc(CNC(=O)C2CCN(c3c(C#N)cnc4ccc(F)cc34)CC2)cc1F
K(p,uu,brain) [13]: 0.26
Emax [1]: 65%
CLhep predicted [3]: 61 mL/min/kg
CLhep predicted [4]: 19 mL/min/kg
Kp [14]: 0.29
EC50 ([2]; read-out: EC50): 1090 nM
EC50 ([2]; read-out: pEC50 (converted)): 1050 nM

Cc1ccc(OC2CCN(c3ccnc4ccc(F)cc34)CC2)cn1
Emax [1]: 62%
EC50 ([2]; read-out: EC50): 2210 nM
EC50 ([2]; read-out: pEC50 (converted)): 2140 nM

N#Cc1cnc2ccc(F)cc2c1N1CCC(C(=O)Nc2ccc(F)c(F)c2)CC1
Emax [1]: 52%
EC50 ([2]; read-out: EC50): 565 nM

Cc1ccc2ncc(C#N)c(N3CCC(Oc4ccc(C)nc4)CC3)c2c1
Emax [1]: 67%
EC50 ([2]; read-out: EC50): 3020 nM
EC50 ([2]; read-out: pEC50 (converted)): 2950 nM

Cc1ccc(OC2CCN(c3c(C#N)cnc4ccc(F)cc34)CC2)cn1
efflux ratio (MDR1 (P-gp)): 1.1
half-life [15]: 1.7 h
Fu (Plasma [16]): 0.045
EC50 [10]: 437 nM
Vd [17]: 4 L/kg
Emax [1]: 79%
CLhep predicted [3]: 52 mL/min/kg
CLhep predicted [4]: 15 mL/min/kg
clearance [18]: 36 mL/min/kg
fraction unbound [5]: 0.031
fraction unbound [6]: 0.014
Papp [19]: 28 ×10⁻⁶ cm/s
clearance [20]: 41 mL/min/kg
Emax [11]: 74%
EC50 ([2]; read-out: EC50): 197 nM
fraction unbound [12]: 0.024
Kp at 25 min [8]: 5.25 to 5.3
half-life [21]: 1.6 h
Vd [22]: 3.2 L/kg
Kp uu at 25 min [9]: 2.37 to 2.4
